Experimental data reported in US12358902B2, “5-(2,5-bis(4-chloro-2-isopropylphenyl)thiophen-3-yl)-1H-tetrazole for the topical treatment of bacterial infections” (DENOVAMED INC., priority 2017, dated 2025).
Values after ≈ are worked out from the molar mass of the structure shown.

Key:
Clostridium spp. = experiment: activity against Clostridium spp.; format: cell-based
MRSA (ATCC #33591) = experiment: rabbit ischemic wound model; format: in vivo, New Zealand white rabbits; settings: topical daily to day 14; p<0.001 vs control, p<0.03 vs mupirocin
Method: 5-(2,5-bis(4-chloro-2-isopropylphenyl)thiophen-3-yl)-1H-tetrazole was tested for its efficacy against infection in the rabbit ischemic wound model, the gold standard animal model mimicking human DUI. In this model, the ear is made ischemic by division of central and rostral nutrient arteries of New Zealand white rabbits. New Zealand White rabbits were employed for this study and their husbandry and experimental manipulation adhered to standard Guides for the Care and Use of Laboratory Animals (2001). An incision was made to the level of bare cartilage at the base of the ear and followed by injection intradermally with epinephrine to obtain vasoconstriction and aid with skin detachment. Skin is separated from the underlying perichondrium and removed with a 6.0 mm aortic biopsy punch. Food and water were given ad libidum and animals were acclimatized for 7 days with photoperiods of alternating 12 h light and dark provided, along with analgesic (BUPRENEX™ (buprenorphine) 0.02 mg/kg sc) and anaesthesia (isoflurane (0.5-5% with oxygen carrier 0.5-2 L/min) during procedures.
An ischemia wound healing model was conducted surgically. Each wound was inoculated with 50 μl of 2×10^7 CFU/ml MRSA (ATCC #33591) and dressed. After one day, wounds were treated with either 50 μl control cream containing vehicle (N=4), 50 μl containing mupirocin (N=4), or 50 μl cream containing 5-(2,5-bis(4-chloro-2-isopropylphenyl)thiophen-3-yl)-1H-tetrazole (N=8) daily. Clinical observations were performed on days 1, 3, 5, 7, 10 and 14. Wounds were assessed and observations recorded using the Draize scoring system. Digital photographs of each wound were obtained and documented.
On day 14 post-wounding, under anesthesia, the animals were euthanized with an intravenous injection of BEUTHANASIA-D™ ([…] and phenytoin sodium) at a dosage of 150 mg/kg of body weight. Specimens including the entire wound, along with approximately 2-3 mm of the normal unwounded skin margins were harvested. Each ear wound specimen was sectioned into halves. For one half of the wound, the wound was placed into a container with 10% neutral buffered formalin and processed for routine histological evaluation. Wound organization was scored for four parameters on a scale of 0-4 at the wound site for inflammation, granulation, angiogenesis, and epithelialization. Wounds were characterized in a blinded manner by a board certified member of the College of American Pathologists. The other half of the wound was weighed (mg) in a sterile Petri dish, then placed in a sterile disposable tissue grinder and homogenized for quantitative microbiology. The tube containing the ground tissue sample was filled with 5 ml 0.85% sterile saline. Five 1:10 serial dilutions were then prepared with 0.5 ml aliquots and 4.5 ml of sterile saline per aliquot. Subsequently, 0.1 ml of the homogenate and each dilution was drop plated on trypticase soy agar and placed in an incubator at 37° C. The number of viable organisms per wound was recorded as cfu/gram of tissue.

[1] = test system: S. aureus MRSA clinical isolate penicillin and erythromycin resistant; experiment: broth microdilution MIC (CLSI); format: cell-based; settings: Staphylococcus aureus, MRSA, read-out: Antibacterial activity (MIC)
Method: (§1) Using a broth microdilution assay according to Clinical Laboratory Standards Institute (CSLI) guidelines, we tested 5-(2,5-bis(4-chloro-2-isopropylphenyl)thiophen-3-yl)-1H-tetrazole (“Test Article” in below table) to establish MICs against a broad range of MDR bacteria and noted substantive activity versus methicillin-resistant Staphylococcus aureus (MRSA), vancomycin-resistant Enterococcus (VRE) and Streptococcus spp. Antimicrobial susceptibility testing was performed by a microdilution broth assay according to CLSI guidelines. The inoculum was prepared from stationary-phase cultures diluted in water. Microtiter plate wells received aliquots of 100 μL of the compound diluted in Mueller-Hinton II cation adjusted media. The final concentration of compound typically ranged from 250 to 0.125 μg/ml in serial two-fold dilutions. In addition to the test compound, growth and sterility controls were included, along with DMSO vehicle control rows. The microtiter plates were inoculated with 5×10^5 bacteria and incubated overnight at 35° C. in a humidified atmosphere.

[2] = test system: S. aureus MRSA clinical isolate multi resistant; experiment: broth microdilution MIC (CLSI); format: cell-based; settings: Staphylococcus aureus, MRSA, read-out: Antibacterial activity (MIC)
Method: as §1

[3] = test system: S. aureus MRSA USA200 epidemic strain; experiment: broth microdilution MIC (CLSI); format: cell-based; settings: Staphylococcus aureus, read-out: Antibacterial activity (MIC)
Method: as §1

[4] = test system: S. aureus MRSA clinical isolate ciprofloxacin resistant; experiment: broth microdilution MIC (CLSI); format: cell-based; settings: Staphylococcus aureus, MRSA, read-out: Antibacterial activity (MIC)
Method: as §1

[5] = test system: S. aureus MRSA USA300 epidemic strain; experiment: broth microdilution MIC (CLSI); format: cell-based; settings: Staphylococcus aureus, read-out: Antibacterial activity (MIC)
Method: as §1

[6] = test system: S. aureus MRSA MISA MU50 NRS1; experiment: broth microdilution MIC (CLSI); format: cell-based; settings: Staphylococcus aureus, read-out: Antibacterial activity (MIC)
Method: as §1

[7] = test system: S. aureus MRSA USA100 epidemic strain; experiment: broth microdilution MIC (CLSI); format: cell-based; settings: Staphylococcus aureus, read-out: Antibacterial activity (MIC)
Method: as §1

[8] = test system: S. aureus MRSA clinical isolate from Manchester; experiment: broth microdilution MIC (CLSI); format: cell-based; settings: Staphylococcus aureus, MRSA, read-out: Antibacterial activity (MIC)
Method: as §1

[9] = test system: S. aureus MRSA MISA MU3 NRS2; experiment: broth microdilution MIC (CLSI); format: cell-based; settings: Staphylococcus aureus, read-out: Antibacterial activity (MIC)
Method: as §1

S. aureus MRSA ATCC43300 = experiment: broth microdilution MIC (CLSI); format: cell-based; settings: Staphylococcus aureus, read-out: Antibacterial activity (MIC)
Method: as §1

How did the activity (Clostridium spp.) turn out when CC(C)c1cc(Cl)ccc1-c1cc(-c2nnn[nH]2)sc1-c1ccc(Cl)cc1C(C)C [5-(4,5-bis(4-chloro-2-isopropylphenyl)thiophen-2-yl)-1H-tetrazole, reference compound] was run?
Its activity is “inactive”.

How did the “percent wound contraction over time (FIG. 1)” value (MRSA (ATCC #33591)) turn out when C/C(=C\C(=O)OCCCCCCCCC(=O)O)C[C@@H]1OC[C@H](C[C@@H]2O[C@H]2[C@@H](C)[C@H](C)O)[C@@H](O)[C@H]1O [mupirocin, reference compound] was run?
The value was “control group had less wound contraction than either treated group”.

Which results are given for CN[C@H](CC(C)C)C(=O)N[C@H]1C(=O)N[C@@H](CC(N)=O)C(=O)N[C@H]2C(=O)N[C@H]3C(=O)N[C@H](C(=O)N[C@H](C(=O)O)c4cc(O)cc(O)c4-c4cc3ccc4O)[C@H](O)c3ccc(c(Cl)c3)Oc3cc2cc(c3O[C@@H]2O[C@H](CO)[C@@H](O)[C@H](O)[C@H]2O[C@H]2C[C@](C)(N)[C@H](O)[C@H](C)O2)Oc2ccc(cc2Cl)[C@H]1O [vancomycin, reference compound]?
MIC [1]: 1 µg/mL (≈ 0.69 µM); MIC [2]: 0.5 µg/mL (≈ 0.345 µM); MIC [3]: 0.5 µg/mL (≈ 0.345 µM); MIC [4]: 0.5 µg/mL (≈ 0.345 µM); MIC [5]: 1 µg/mL (≈ 0.69 µM); MIC [6]: 4 µg/mL (≈ 2.76 µM); MIC [7]: 1 µg/mL (≈ 0.69 µM); MIC [8]: 0.5 µg/mL (≈ 0.345 µM); MIC [9]: 1 µg/mL (≈ 0.69 µM); MIC (S. aureus MRSA ATCC43300): 0.5 µg/mL (≈ 0.345 µM)
